According to PubChem BioAssay (NCI):
Where “and” joins values, the source holds several entries; their conditions need not be identical. Equal values may be shown once.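 GI50 = concentration required for 50% inhibition of growth. TGI: concentration producing complete growth inhibition.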

Experiments:
Test in all cases: growth of human tumour cells (NCI), 384-well format
[1] = tested on: NCI-H460 NSCLC
[2] = tested on: OVCAR-4 ovarian
[3] = tested on: ACHN renal
[4] = tested on: A498 renal
[5] = tested on: IGROV1 ovarian
[6] = tested on: TK-10 renal
[7] = tested on: SF-295 CNS
[8] = tested on: MDA-MB-231 breast
[9] = tested on: SK-OV-3 ovarian
[10] = tested on: NCI-H322M lung
[11] = tested on: RPMI-8226 leukemia
[12] = tested on: MALME-3M melanoma
[13] = tested on: DU-145 prostate
[14] = tested on: COLO 205 colon
[15] = tested on: SN12C renal
[16] = tested on: 786-0 renal
[17] = tested on: NCI-H226 lung
[18] = tested on: MDA-MB-435 melanoma
[19] = tested on: EKVX NSCLC
[20] = tested on: LOX IMVI melanoma
[21] = tested on: SF-268 CNS
[22] = tested on: HCC-2998 colon
[23] = tested on: T-47D breast
[24] = tested on: SK-MEL-28 melanoma
[25] = tested on: NCI/ADR-RES ovarian
[26] = tested on: UO-31 renal
[27] = tested on: HCT-116 colon
[28] = tested on: MCF7 breast
[29] = tested on: HT29 colon
[30] = tested on: HCT-15 colon
[31] = tested on: NCI-H23 lung
[32] = tested on: RXF 393 renal
[33] = tested on: M14 melanoma
[34] = tested on: MDA-MB-468 breast
[35] = tested on: K-562 leukemia
[36] = tested on: CCRF-CEM leukemia
[37] = tested on: HOP-92 NSCLC
[38] = tested on: SNB-19 CNS
[39] = tested on: U251 glioblastoma
[40] = tested on: OVCAR-8 ovarian
[41] = tested on: KM12 colon
[42] = tested on: SK-MEL-2 melanoma
[43] = tested on: MOLT-4 leukemia
[44] = tested on: UACC-62 melanoma
[45] = tested on: OVCAR-3 ovarian
[46] = tested on: SW-620 colon
[47] = tested on: CAKI-1 renal
[48] = tested on: HOP-62 NSCLC
[49] = tested on: SF-539 CNS
[50] = tested on: SK-MEL-5 melanoma
[51] = tested on: HL-60(TB) leukemia
[52] = tested on: HS 578T breast
[53] = tested on: SNB-75 CNS
[54] = tested on: A549 NSCLC
[55] = tested on: BT-549 breast
[56] = tested on: PC-3 prostate
[57] = tested on: OVCAR-5 ovarian
[58] = tested on: UACC-257 melanoma
[59] = tested on: SR leukemia
[60] = tested on: NCI-H522 lung

CCc1nc(C(N)=O)c(Nc2ccc(N3CCC(N4CCN(C)CC4)CC3)c(OC)c2)nc1NC1CCOCC1
GI50 [1]: 465 nM and 292 nM | GI50 [2]: > 100000 nM | TGI [2]: > 100000 nM | GI50 [3]: 593 nM and 391 nM | TGI [3]: > 100000 nM | GI50 [4]: 619 nM and 283 nM | GI50 [5]: 335 nM and 179 nM | TGI [5]: 1620 nM and 484 nM | GI50 [6]: 1680 nM and 818 nM | GI50 [7]: 4620 nM and 1040 nM | TGI [7]: > 20900 nM and 3070 nM | GI50 [8]: 474 nM and 370 nM | TGI [8]: 2570 nM and 1760 nM | GI50 [9]: 339 nM and 160 nM | GI50 [10]: 674 nM and 246 nM | GI50 [11]: 975 nM and 255 nM | TGI [11]: 4200 nM and 984 nM | GI50 [12]: 302 nM and 155 nM | TGI [12]: 1700 nM and 1060 nM | GI50 [13]: 491 nM and 322 nM | GI50 [14]: 495 nM and 303 nM | TGI [14]: 5230 nM and 1100 nM | GI50 [15]: 168 nM and 67.1 nM | TGI [15]: > 100000 nM | GI50 [16]: 1030 nM and 313 nM | TGI [16]: 5870 nM and 1580 nM | GI50 [17]: 584 nM and 593 nM | TGI [17]: 4610 nM | GI50 [18]: 704 nM and 329 nM | TGI [18]: > 100000 nM | GI50 [19]: 463 nM | TGI [19]: 99300 nM | GI50 [20]: 775 nM and 371 nM | GI50 [21]: 2190 nM and 1360 nM | TGI [21]: > 26500 nM | GI50 [22]: 180 nM and 253 nM | TGI [22]: 5550 nM and 3080 nM | TGI [23]: > 100000 nM | GI50 [24]: 227 nM | TGI [24]: 986 nM | GI50 [25]: 3260 nM and 2240 nM | TGI [25]: > 100000 nM | GI50 [26]: 457 nM and 231 nM | GI50 [27]: 494 nM and 294 nM | TGI [27]: 5950 nM and 3070 nM | GI50 [28]: 383 nM and 247 nM | GI50 [29]: 282 nM and 174 nM | GI50 [30]: 458 nM and 318 nM | TGI [30]: > 100000 nM | GI50 [31]: 300 nM and 123 nM | TGI [31]: 5540 nM and 617 nM | GI50 [32]: 1170 nM and 208 nM | GI50 [33]: 402 nM and 239 nM | TGI [33]: 1790 nM and 1160 nM | GI50 [34]: 2150 nM | GI50 [35]: 1250 nM | TGI [35]: 3940 nM | GI50 [36]: 1730 nM and 828 nM | TGI [36]: 3390 nM and 2100 nM | GI50 [37]: 114 nM and 36.3 nM | TGI [37]: 608 nM and 213 nM | GI50 [38]: 3390 nM and 1080 nM | TGI [38]: > 100000 nM | GI50 [39]: 6480 nM and 834 nM | GI50 [40]: 5100 nM and 758 nM | TGI [40]: > 100000 nM | GI50 [41]: 35.3 nM and 16.5 nM | GI50 [42]: 242 nM | TGI [42]: 1300 nM | GI50 [43]: 371 nM and 191 nM | TGI [43]: 1330 nM and 375 nM | GI50 [44]: 396 nM and 214 nM | TGI [44]: 1320 nM | GI50 [45]: 1170 nM and 584 nM | TGI [45]: > 25600 nM and 4320 nM | GI50 [46]: 587 nM and 444 nM | TGI [46]: 2070 nM and 1580 nM | GI50 [47]: 247 nM and 155 nM | TGI [47]: 556 nM | GI50 [48]: 1230 nM and 392 nM | GI50 [49]: 1910 nM and 638 nM | TGI [49]: 6720 nM and 2320 nM | GI50 [50]: 661 nM and 406 nM | TGI [50]: > 100000 nM | GI50 [51]: 357 nM and 185 nM | TGI [51]: 1030 nM and 403 nM | GI50 [52]: 1180 nM | TGI [52]: 3540 nM | GI50 [53]: 1360 nM | TGI [53]: 4160 nM | GI50 [54]: 533 nM and 259 nM | GI50 [55]: 551 nM and 339 nM | TGI [55]: 2580 nM and 1730 nM | GI50 [56]: 385 nM and 672 nM | TGI [56]: > 100000 nM | GI50 [57]: 503 nM and 216 nM

CCOc1cc(C(C)(C)C)ccc1C1=N[C@@](C)(c2ccc(Cl)cc2)[C@@](C)(c2ccc(Cl)cc2)N1C(=O)N1CCN(CCCS(C)(=O)=O)CC1
GI50 [1]: 224 nM | TGI [1]: 1300 nM | GI50 [2]: 2530 nM | TGI [2]: 5890 nM | GI50 [3]: 205 nM | TGI [3]: 1210 nM | GI50 [4]: 185 nM | TGI [4]: 1370 nM | GI50 [58]: 1440 nM | TGI [58]: 3140 nM | GI50 [5]: 1410 nM | TGI [5]: 3320 nM | GI50 [6]: 2830 nM | TGI [6]: 8930 nM | GI50 [7]: 1930 nM | TGI [7]: 3850 nM | GI50 [8]: 2660 nM | TGI [8]: 6530 nM | GI50 [9]: 2600 nM | TGI [9]: 7360 nM | GI50 [10]: 2280 nM | TGI [10]: 3960 nM | GI50 [11]: 1820 nM | TGI [11]: 3220 nM | GI50 [12]: 753 nM | TGI [12]: 2620 nM | GI50 [13]: 3160 nM | TGI [13]: 10100 nM | GI50 [14]: 3540 nM | TGI [14]: 9600 nM | GI50 [15]: 2400 nM | TGI [15]: 5210 nM | GI50 [16]: 2510 nM | TGI [16]: 7150 nM | GI50 [17]: 108 nM | TGI [17]: 359 nM | GI50 [18]: 3940 nM | TGI [18]: 11700 nM | GI50 [20]: 892 nM | TGI [20]: 2120 nM | GI50 [21]: 2650 nM | TGI [21]: 7380 nM | GI50 [22]: 1470 nM | TGI [22]: 2960 nM | GI50 [23]: 2440 nM | TGI [23]: 8590 nM | GI50 [24]: 3860 nM | TGI [24]: 10900 nM | GI50 [25]: 2370 nM | TGI [25]: 6070 nM | GI50 [26]: 53.4 nM | TGI [26]: 205 nM | GI50 [59]: 20 nM | TGI [59]: 56.9 nM | GI50 [27]: 327 nM | TGI [27]: 1610 nM | GI50 [28]: 411 nM | TGI [28]: 1940 nM | GI50 [29]: 1870 nM | TGI [29]: 3290 nM | GI50 [30]: 1900 nM | TGI [30]: 3490 nM | GI50 [31]: 5590 nM | TGI [31]: 16400 nM | GI50 [32]: 2230 nM | TGI [32]: 4550 nM | GI50 [33]: 1070 nM | TGI [33]: 3240 nM | GI50 [34]: 2040 nM | TGI [34]: 5160 nM | GI50 [35]: 2940 nM | TGI [35]: 8630 nM | GI50 [36]: 2120 nM | TGI [36]: 3700 nM | GI50 [37]: 2240 nM | TGI [37]: 4680 nM | GI50 [38]: 3180 nM | TGI [38]: 11300 nM | GI50 [39]: 3710 nM | TGI [39]: 11900 nM | GI50 [40]: 3560 nM | TGI [40]: 12600 nM | GI50 [41]: 2230 nM | TGI [41]: 4770 nM | GI50 [42]: 2260 nM | TGI [42]: 4190 nM | GI50 [60]: 3250 nM | TGI [60]: 8970 nM | GI50 [43]: 29.6 nM | TGI [43]: 97.5 nM | GI50 [44]: 67.8 nM | TGI [44]: 1590 nM | GI50 [45]: 2110 nM | TGI [45]: 3760 nM | GI50 [46]: 4240 nM | TGI [46]: 13200 nM | GI50 [47]: 122 nM | TGI [47]: 1470 nM | GI50 [48]: 2480 nM | TGI [48]: 6590 nM | GI50 [49]: 2030 nM | TGI [49]: 4250 nM | GI50 [50]: 1390 nM | TGI [50]: 2690 nM | GI50 [51]: 2560 nM | TGI [51]: 4040 nM | GI50 [54]: 405 nM | TGI [54]: 1630 nM | GI50 [55]: 2350 nM | TGI [55]: 5590 nM | GI50 [56]: 2150 nM | TGI [56]: 4430 nM | GI50 [57]: 3520 nM | TGI [57]: 10800 nM
